Data on 17 molecules can be found in PubChem BioAssay (NCI).

The structures appear in SMILES notation.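 The compound was tested at five concentrations on cells cultured in 96-well plates, with a 48-hour exposure period. TGI denotes the concentration required for complete inhibition of growth.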 Bounds are passed on as bounds.

What all share (test): NCI tumour cell line growth inhibition, 48 h
Experiment [1] concerns A498 renal.
For experiment [2], the system named is COLO 205 colon.
Experiment [3] relates to NCI-H522 lung.
Experiment [4] has as its system SF-295 CNS.
The subject of experiment [5] is SK-MEL-28 melanoma.
For experiment [6], the system named is SK-MEL-5 melanoma.
Experiment [7] concerns U251 CNS.
The test system of experiment [8] is DLD-1 colon.
The test system of experiment [9] is HOP-18 NSCLC.
Experiment [10] relates to M19-MEL melanoma.
The test system of experiment [11] is DMS 273 small cell lung.
Experiment [12] deals with SNB-78 CNS.

As to `Cc1cc(S(=O)(=O)Nc2nc(N)n(C)n2)c(S)cc1Cl`, the TGI in [1], in experiment [2], in experiment [3], in experiment [4], in experiment [5] and in experiment [6] was > 10 µM throughout. The TGI in experiment [7] was > 10 µM.

For the molecule `Nc1nc(Cl)c2ncn(Cc3ccccc3CCl)c2n1`, the TGI is 44.3 µM in experiment [1]; > 100 µM in experiment [2]; 9.41 µM in experiment [3]; 23.4 µM in experiment [4]; 20.7 µM in experiment [5]; 26.5 µM in experiment [6]. Further, the TGI in [7] amounted to 13.4 µM.

Take `O=[N+]([O-])c1cc(Cl)ccc1S(=O)(=O)c1ccccc1`: the TGI in experiment [1], in experiment [2], in [3], in [4], in experiment [5] and in [6] was > 100 µM each time. In experiment [7], the TGI is > 100 µM.

On to `CCCNc1[nH]c(C(C)=O)c(N)c1C(=S)Nc1ccccc1`, for which the TGI in experiment [1] was > 100 µM; in experiment [2] it was > 100 µM; in experiment [3], > 100 µM; in experiment [4], > 100 µM; in experiment [5], 68.3 µM; in [6] it was 52.3 µM. In addition, in experiment [7], the TGI is > 100 µM.

`OCCOCCO[P+]1(OCCOCCO)n2c3ccc2C(c2ccccc2)=C2C=CC(=N2)C(c2ccccc2)=c2ccc(n21)=C(c1ccccc1)C1=NC(=C3c2ccccc2)C=C1`: the TGI was > 100 µM in experiment [1]; 0.0998 µM in [2]; 0.448 µM in [3]; 1.03 µM in experiment [4]; 0.778 µM in experiment [5]; 0.134 µM in experiment [6]. For the same molecule, in experiment [7], the TGI is > 100 µM.

With `O=[N+]([O-])C(=C1Nc2ccccc2N1)C(Cl)=C(Cl)Cl`, the TGI in [1], in experiment [2], in experiment [3], in [4], in experiment [5] and in [6] was > 100 µM in each case. The TGI in experiment [7] is > 100 µM.

Turning to `COc1ccc(-c2nc3ccc(C)cc3o2)c(OC)c1`, the TGI is 46.5 µM in experiment [1]; 40.7 µM in experiment [2]; 39.2 µM in [3]; 46.8 µM in experiment [4]; > 100 µM in experiment [5]; 43.3 µM in experiment [6]. For the same molecule, the TGI in experiment [7] is 65 µM.

For the molecule `COc1cc2c(cc1OC)-c1cc3ccccc3c(=O)n1CCC2`, the TGI in experiment [1] was 31.5 µM; in experiment [2], > 60.2 µM; in [3], 74.9 µM; in experiment [4] it was > 85 µM; in experiment [5] it was > 73.6 µM; in experiment [6] it was 28 µM. Besides, the TGI in experiment [7] was > 65.7 µM.

Turning to `CCOC(=O)c1sc2nc(SC)nc(Nc3ccc(OC)c(OC)c3)c2c1N`, the TGI was 37.3 µM in experiment [1]; > 100 µM in experiment [2]; > 100 µM in experiment [3]; 45.6 µM in experiment [4]; 52.7 µM in experiment [5]; > 100 µM in [6]. The TGI in experiment [7] is > 100 µM.

Regarding `CN1N=C(c2ccncc2)OC1c1ccc(Cl)c(Cl)c1` (stereo unspecified), the TGI in experiment [1], in experiment [2], in experiment [3], in [4], in experiment [5] and in experiment [6] was > 100 µM throughout. Moreover, the TGI in [7] was > 100 µM.

As to `CS(=O)(=O)C(=Cc1ccccc1Cl)S(C)(=O)=O`, the TGI in [1] is > 100 µM; in experiment [2], > 100 µM; in [3], > 100 µM; in [4] it was > 46.4 µM; in experiment [5], > 100 µM; in [6] it was > 100 µM. Moreover, the TGI in [7] is > 100 µM.

For the molecule `CCCCNc1nc(SC)nc2nc[nH]c12`, the TGI was > 89.2 µM in [1]; > 100 µM in experiment [2]; > 100 µM in experiment [3]; > 100 µM in [4]; > 100 µM in experiment [5]; > 100 µM in experiment [6]. Further, in [7], the TGI was > 100 µM.

As for `COC(=O)[C@]1(c2cc3ccccc3[nH]2)CC2CN(CC(=O)N(C)OC)C1C1OC(C)(C)OC21` (stereo partly specified), the TGI in experiment [1] is 91.7 µM; in [2], > 100 µM; in [3], > 100 µM; in experiment [4] it was > 100 µM; in experiment [5] it was > 100 µM; in experiment [6] it was > 100 µM. For the same molecule, the TGI in experiment [7] is > 100 µM.

Take `Cc1ccc(N2C(=O)/C(=c3\s/c(=C(/N)O)c(=N)n3-c3ccccc3)SC2=S)cc1`: the TGI in experiment [1], in experiment [2], in experiment [8], in [9], in [10] and in experiment [3] was > 100 µM each time. Also, the TGI in experiment [4], in [5], in experiment [6] and in experiment [7] was > 100 µM in each case.

Turning to `CC[C@H](CCCCC1CC[C@@H]2CC(=O)C[C@H]12)OC` (stereo partly specified), the TGI in experiment [1], in experiment [2], in experiment [3], in experiment [4], in experiment [5] and in [6] was > 100 µM each time. Also, in experiment [7], the TGI is > 100 µM.

Turning to `COC(=O)C1=NN2c3ccccc3CN([C@@H](C)c3ccccc3)C(=O)[C@@H]2C1`, the TGI is > 100 µM in experiment [1]; > 100 µM in [2]; 53.1 µM in [3]; > 100 µM in [4]; > 100 µM in experiment [5]; 32.7 µM in experiment [6]. Further, in experiment [7], the TGI is > 100 µM.

For `Cc1ccc(S(=O)(=O)C2=c3ncccc3=C3C(=O)c4ccccc4C(=O)C32)cc1` (stereo unspecified), the TGI in experiment [2] is > 100 µM; in [8], > 100 µM; in experiment [11], > 100 µM; in experiment [9], > 100 µM; in [10] it was > 100 µM; in experiment [3], 85.3 µM. For the same molecule, the TGI in experiment [4] was > 100 µM; in [5], > 100 µM; in [6], > 15 µM; in experiment [12], > 100 µM; in experiment [7], > 100 µM.
